Reference: patent publication US9801872B2, “Pyridinyl and fused pyridinyl triazolone derivatives” (Takeda Pharmaceutical Company Limited, priority 2013, dated 2017)

Biological target: human BTK (Homo sapiens (Human), UniProt Q06187)
Test: BTK inhibition: BTK-mediated phosphorylation of FAM-labeled substrate 5-FAM-[…]-NH2 (Caliper LC-3000)
Assay type: biochemical
Settings: residues 382 to 659 of human BTK; 60 minutes at room temperature; pIC50 = -log(IC50), IC50 molar
From the text: The activity of compounds as BTK inhibitors may be determined by a variety of methods, including in vitro and in vivo methods.
This construct engineers an in-frame translational fusion with the Glutathione-S-Transferase (GST) protein for use in affinity purification. The fusion protein derived from this construct contains a protease recognition sequence to liberate the BTK from the GST affinity tag. High-titer baculoviral stocks, generated using the Bac-to-Bac® system (Invitrogen), are used to express the recombinant protein in Spodoptera frugiperda Sf9 cells in 10 L Wave bags. Recombinant proteins are isolated from cellular extracts by passage over Glutathione Sepharose 4B (GE Healthcare) and the BTK moiety is released from the GST affinity tag by treatment with PreScission protease. The BTK recombinant protein is further purified by size exclusion chromatography (HiLoad 16/60 Superdex 200, GE Healthcare) in a buffer containing 20 mM Hepes (pH 7.4), 50 mM NaCl, 10 mM MgCl2, 0.25 mM TCEP and 0.1 mM EDTA. The purity of the fractions is assessed by SDS PAGE and the peak protein fractions are pooled and concentrated using Amicon Ultra-15 Centrifugal Filter Devices (Millipore).
The inhibitory properties of compounds relative to BTK is determined using a black 384-well-plate format in a buffer which contains 50 mM Hepes, 10 mM NaCl, 10 mM MgCl2, 0.2 mM EDTA, 0.01% Brij35®, 1 mM DTT, and 0.1 mg/mL BSA at pH 7.3. The test compound is prepared in DMSO using 2-fold serial dilutions for 11 data points, which are added to the buffer so that each dilution contains 3% DMSO. […] The reaction mixtures are incubated at room temperature for 60 minutes and then quenched by adding 25 μL of 50 mM EDTA. To quantify the fluorescent-labeled substrate and product following reaction, the test plate is loaded on a Caliper LC-3000, which measures percent of conversion by microfluidic-based separation.
The compounds were tested in accordance with the assay described on page 42 of the specification.

human BTK, sequence (Q06187 382-659): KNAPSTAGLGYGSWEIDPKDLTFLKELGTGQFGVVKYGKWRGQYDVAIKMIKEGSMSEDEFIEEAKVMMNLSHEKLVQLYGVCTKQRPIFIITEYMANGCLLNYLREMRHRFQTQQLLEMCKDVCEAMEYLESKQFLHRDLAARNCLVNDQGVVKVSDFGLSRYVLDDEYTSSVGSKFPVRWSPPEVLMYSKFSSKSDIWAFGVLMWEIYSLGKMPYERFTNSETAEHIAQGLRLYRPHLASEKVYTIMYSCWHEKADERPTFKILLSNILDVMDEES

BTK Inhibition (pIC50) | SMILES
>8.9 | C=CC(=O)N1CC[C@H](Oc2nc(-c3n[nH]c(=O)[nH]3)cc3cccc(Cl)c23)C1 [Example 27, (S)-3-(1-((1-acryloylpyrrolidin-3-yl)oxy)-8-chloroisoquinolin-3-yl) -1H-1,2,4-triazol-5(4H)-one]
6.9 | C=CC(=O)N1C[C@@H](C)[C@H](Oc2nc(-c3n[nH]c(=O)[nH]3)cc3ccccc23)C1 [Example 21, 3-(1-(((3S,4R)-1-acryloyl-4-methylpyrrolidin-3-yl)oxy)isoquinolin-3-yl)-1H-1,2,4-triazol-5(4H)-one]
